Consider 8 compounds from ChEMBL document CHEMBL1201862, “PubChem BioAssay data set” (2004).

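Step 1: Grow cells in 96-well plates. Step 2: Expose to compound for 48 hours at 5 concentrations. Step 3: Interpolate endpoints linearly; if unreached, use highest concentration. The concentration for 50% growth inhibition is given as GI50.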 The source made the active and inactive calls. Rule as the data show it: active = GI50 up to about 1.1 µM and inactive = higher. A value given as a limit tells only on which side of the number the result lay.

Test systems include EKVX; UACC-62; MDA-MB-231; MDA-N; A549; RPMI-8226; TK-10; HT-29; KM12; SF-295; NCI-H522; OVCAR-3; HCT-15; OVCAR-4; SR; U-251; NCI-H226; SK-MEL-28; IGROV-1; HL-60.
What all share (test): DTP human tumour cell line panel, 48 h

Broadly, the GI50 is the concentration that inhibits growth by half. Regarding `NS(=O)(=O)c1nnc(NS(=O)(=O)c2ccc(Cl)cc2)s1`, the GI50 in the experiment with EKVX, with UACC-62, with MDA-MB-231, with MDA-N, in the experiment with A549 and in the experiment on RPMI-8226 was > 100 µM (inactive) in each case. Also, the GI50 in the experiment on TK-10, in the experiment with HT-29, in the experiment on KM12, in the experiment on SF-295, in the experiment with NCI-H522 and in the experiment with OVCAR-3 was > 100 µM (inactive) throughout. Further, the GI50 with HCT-15 was over 100 µM; with OVCAR-4, > 100 µM (inactive); in the experiment with SR it was > 100 µM (inactive); in the experiment on U-251 it was > 100 µM (inactive); in the experiment on NCI-H226, > 100 µM (inactive); in the experiment on SK-MEL-28, > 100 µM (inactive).
For the compound `CC(C)CC1NC(=O)CCC(NC(=O)C(Cc2ccc(O)cc2)NC(=O)OCc2ccccc2)C(=O)NC(Cc2ccccc2)C(=O)NC(Cc2ccccc2)NC1=O` (configuration not stated), the GI50 in the experiment on EKVX, in the experiment with UACC-62, with IGROV-1, with MDA-MB-231, in the experiment with MDA-N and with A549 was > 100 µM (inactive) throughout. The GI50 in the experiment with RPMI-8226, in the experiment with TK-10, with HT-29, with KM12, with SF-295 and in the experiment with OVCAR-3 was > 100 µM (inactive) throughout. For the same compound, the GI50 was over 100 µM in the experiment with HCT-15; > 100 µM (inactive) with HL-60; > 100 µM (inactive) with OVCAR-4; > 100 µM (inactive) with SR; > 100 µM (inactive) in the experiment with U-251; > 100 µM (inactive) in the experiment on NCI-H226. Besides, in the experiment on SK-MEL-28, the GI50 is > 100 µM (inactive).
As to `Clc1ccc(-c2cn3c(nc4ccccc43)c(/C=C/c3ccco3)n2)cc1`, the GI50 was 41.8 µM (inactive) in the experiment on UACC-62; 30.5 µM (inactive) in the experiment with IGROV-1; 28.4 µM (inactive) in the experiment with MDA-MB-231; 72.8 µM (inactive) with MDA-N; 46.6 µM (inactive) in the experiment on A549; 16.1 µM (inactive) with RPMI-8226. The GI50 in the experiment with TK-10 was 24 µM (inactive); in the experiment on HT-29, 62.8 µM (inactive); with KM12, 29.5 µM (inactive); in the experiment on OVCAR-3, 34.4 µM (inactive); with HCT-15, 57.5 µM; with HL-60, 12.5 µM (inactive). The GI50 in the experiment on OVCAR-4 was 25.3 µM (inactive); in the experiment on SR, 17.9 µM (inactive); with U-251 it was 28.2 µM (inactive); in the experiment on NCI-H226, > 100 µM (inactive); in the experiment with SK-MEL-28, 57.9 µM (inactive).
In the case of `COC1OC2COC1(OCc1ccccc1)C1OC(C)(C)OC21` (configuration not stated), the GI50 with EKVX, in the experiment with UACC-62, with IGROV-1, in the experiment with MDA-MB-231, in the experiment on MDA-N and in the experiment on A549 was > 100 µM (inactive) in each case. Besides, the GI50 with RPMI-8226, with TK-10, with HT-29, in the experiment with KM12, with SF-295 and in the experiment on NCI-H522 was > 100 µM (inactive) throughout. In addition, the GI50 with OVCAR-3 is > 100 µM (inactive); in the experiment on HCT-15, over 100 µM; with OVCAR-4 it was > 100 µM (inactive); in the experiment on SR it was > 100 µM (inactive); in the experiment with U-251, > 100 µM (inactive); in the experiment with NCI-H226, > 100 µM (inactive). The GI50 in the experiment with SK-MEL-28 is > 100 µM (inactive).
Take `CCCCn1c2c(n(CCCC)c1=[Se])-c1c(n(CCCC)c(=[Se])n1CCCC)S[Se][Se]S2`: the GI50 was 38.5 µM (inactive) with EKVX; 17.8 µM (inactive) in the experiment on UACC-62; 7.1 µM (inactive) in the experiment on IGROV-1; 14.5 µM (inactive) in the experiment on MDA-MB-231; 33.7 µM (inactive) in the experiment on MDA-N; 20.7 µM (inactive) with A549. The GI50 in the experiment on RPMI-8226 is 16.8 µM (inactive); in the experiment with TK-10, 5.4 µM (inactive); in the experiment on HT-29, 26.5 µM (inactive); with KM12, 27.2 µM (inactive); in the experiment on SF-295, 4.55 µM (inactive); in the experiment with NCI-H522, 1.61 µM (inactive). The GI50 in the experiment on OVCAR-3 was 6.95 µM (inactive); with HCT-15 it was 13.7 µM; with OVCAR-4 it was 9.27 µM (inactive); in the experiment with SR it was 20.7 µM (inactive); with U-251, 11.4 µM (inactive); in the experiment on NCI-H226, 6.52 µM (inactive). Further, the GI50 in the experiment with SK-MEL-28 is 39.1 µM (inactive).
In the case of `O=C(/C=C/c1ccc(-c2ccccc2)cc1)NCc1ccc(C(=O)NCCc2ccccc2)cc1`, the GI50 was > 100 µM (inactive) in the experiment on EKVX; > 100 µM (inactive) in the experiment on UACC-62; > 100 µM (inactive) in the experiment with IGROV-1; 38.1 µM (inactive) in the experiment with MDA-MB-231; > 100 µM (inactive) in the experiment on MDA-N; > 100 µM (inactive) in the experiment on A549. Further, the GI50 is > 100 µM (inactive) in the experiment with RPMI-8226; > 100 µM (inactive) in the experiment on TK-10; 28.1 µM (inactive) in the experiment with HT-29; > 100 µM (inactive) in the experiment with KM12; > 100 µM (inactive) in the experiment on SF-295; > 100 µM (inactive) with NCI-H522. For the same compound, the GI50 was > 100 µM (inactive) in the experiment with OVCAR-3; over 100 µM in the experiment on HCT-15; > 100 µM (inactive) with OVCAR-4; 44.8 µM (inactive) in the experiment with SR; 65.3 µM (inactive) in the experiment on U-251; > 100 µM (inactive) in the experiment with NCI-H226. The GI50 in the experiment on SK-MEL-28 was > 100 µM (inactive).
For the compound `C/C(=C\COc1cc(O)c2c(c1)C(=O)c1cc(C)cc(O)c1C2=O)CCC1OC1(C)C` (configuration not stated), the GI50 in the experiment with EKVX was > 100 µM (inactive); in the experiment on UACC-62 it was 40.3 µM (inactive); in the experiment with IGROV-1, 68.9 µM (inactive); with MDA-MB-231 it was > 100 µM (inactive); in the experiment with MDA-N, > 100 µM (inactive); in the experiment with A549, 85.5 µM (inactive). In addition, the GI50 is 93.8 µM (inactive) in the experiment with RPMI-8226; 40.3 µM (inactive) in the experiment on TK-10; > 100 µM (inactive) in the experiment with HT-29; > 100 µM (inactive) with KM12; > 100 µM (inactive) with SF-295; 69.8 µM (inactive) with NCI-H522. Besides, the GI50 in the experiment on OVCAR-3 is > 100 µM (inactive); in the experiment on HCT-15, 84.3 µM; with HL-60 it was > 10 µM (inactive); in the experiment with OVCAR-4, 37.8 µM (inactive); in the experiment on SR, 13.9 µM (inactive); in the experiment on U-251 it was 63.8 µM (inactive). The GI50 with SK-MEL-28 was > 100 µM (inactive).
As to `C[n+]1c(-c2ccc(/C=N/NC(=O)C(=O)N/N=C/c3ccc(-c4cn5ccccc5[n+]4C)cc3)cc2)cn2ccccc21`, the GI50 in the experiment with EKVX, in the experiment with UACC-62, in the experiment with IGROV-1, in the experiment on MDA-MB-231, in the experiment with MDA-N and with A549 was > 100 µM (inactive) throughout. The GI50 with RPMI-8226 is > 100 µM (inactive); with TK-10 it was 56.6 µM (inactive); with HT-29 it was > 100 µM (inactive); in the experiment on KM12, > 100 µM (inactive); in the experiment on NCI-H522, > 100 µM (inactive); in the experiment with OVCAR-3, 45.9 µM (inactive). Besides, the GI50 in the experiment with HCT-15 is over 100 µM; with HL-60, > 100 µM (inactive); in the experiment on OVCAR-4, > 100 µM (inactive); in the experiment with U-251 it was > 100 µM (inactive); in the experiment on NCI-H226, > 100 µM (inactive).
